The results in this text go back to patent US20250276964A1 (Novartis AG, priority 2021, published 2025).

The target of this assay is T1, WIZ (Homo sapiens, UniProt O95785+Q96SW2).
T1 construct: expressed in transfected cells
As to the kind of experiment: Quantification of WIZ protein levels in HiBit tag fusion protein assay (WIZ HiBit assay in 293T cells). The class given is cell-based. As to conditions: for Dmax at 25 µM / remaining activity at 25 µM: HEK-293T; for Dmax at 25 µM / % degradation of WIZ (100-Amax): 100 minus Amax at 25 uM; for Dmax at 25 µM: read-out: % degradation of WIZ (100-Amax); for remaining activity at 25 µM / WIZ Amax: DMSO-normalized, curve-fitted percentage of WIZ-HiBit remaining at 25 uM; for remaining activity at 25 µM: read-out: WIZ Amax; for DC50: WIZ HiBit assay in 293T cells, 10-point, 5-fold dilution, highest concentration 25 μM, about 18 hours, read-out: WIZ AC50. Here is the method: The HiBit system from Promega was used to develop high-throughput and quantitative assays to measure changes in WIZ protein levels in response to compounds. The HiBit tag was derived from a split Nanoluciferase and has the following protein sequence: […] (SEQ ID NO: 1). The complementary fragment of Nanoluciferase (known as LgBit, from Promega), was added to the HiBit tag to form an active Nanoluciferase enzyme whose activity can be precisely measured. In this way, the levels of a fusion protein with the HiBit tag can be quantified in cell lysates.
Lentiviral vectors, based on the Invitrogen™ pLenti6.2/V5 DEST backbone were constructed that places the HiBit tag upstream of WIZ and expressed the fusion protein from an HSVTK promotor.
To ensure moderate and consistent expression of the HiBit-WIZ fusion protein across all cells in the population, stable cell lines were constructed from cells harboring a single copy of the construct. Lentivirus packaged with the constructs were made using the ViraPower™kit from Invitrogen™. 293T cells from ATCC (Catalog number: CRL-3216), were infected with the virus at low multiplicity of infection and selected by 5 μg/mL blasticidin in culture media for 2 weeks.
The levels of HiBit-WIZ tagged fusion proteins in compound-treated cell lines were measured as follows:
On day 1, cells were diluted to 1.0×10^6 cells/ml in normal growth medium. 20 μL of cell suspension were plated in each well of a solid white 384-well plate. Plates were incubated overnight in a 37° C. and 5% CO2 humidified tissue culture incubator.
On day 2, serial dilutions of compounds were made in 384-well plates. Compound plates were set up with DMSO in columns 1, 2, 23, 24, and 10-point compound dilution series in column 3-12 and column 13-22. 10 mM stock solution of compound were placed into column 3 or 13 and a 1:5 serial dilution was carried out until there was a 10-point dilution series per compound. 50 nL of diluted compounds were transferred into the plated cells by Echo® (Labcyte) acoustic transfer. The highest concentration of compound was 25 μM. Plates were incubated overnight (about 18 hours) in a 37° C. and 5% CO2 humidified tissue culture incubator.
On day 3, plates were removed from the incubator and allowed to equilibrate at room temperature for 60 minutes. HiBit substrate (Nano-Glo® HiBit Lytic Detection System, Promega Catalogue number: N3050) was added as described by the manufacturers protocols. Plates were incubated at room temperature for 30 minutes and luminescence was read using an EnVision® reader (PerkinElmer®). Data was analyzed and visualized using the Spotfire® software package.
WIZ Amax reflects the DMSO-normalized, curve-fitted percentage of WIZ-HiBit remaining at 25 uM. It was calculated by normalizing DMSO controls to 100%, parametric curve fitting of the dose response data (10-point, 5-fold), followed by calculation of response at 25 uM using the fitted equation (nd=not determined).
A general note: HiBiT is a short tag that completes a luciferase, so light tracks the accessible tagged protein.

T1 sequence (O95785 whole entry): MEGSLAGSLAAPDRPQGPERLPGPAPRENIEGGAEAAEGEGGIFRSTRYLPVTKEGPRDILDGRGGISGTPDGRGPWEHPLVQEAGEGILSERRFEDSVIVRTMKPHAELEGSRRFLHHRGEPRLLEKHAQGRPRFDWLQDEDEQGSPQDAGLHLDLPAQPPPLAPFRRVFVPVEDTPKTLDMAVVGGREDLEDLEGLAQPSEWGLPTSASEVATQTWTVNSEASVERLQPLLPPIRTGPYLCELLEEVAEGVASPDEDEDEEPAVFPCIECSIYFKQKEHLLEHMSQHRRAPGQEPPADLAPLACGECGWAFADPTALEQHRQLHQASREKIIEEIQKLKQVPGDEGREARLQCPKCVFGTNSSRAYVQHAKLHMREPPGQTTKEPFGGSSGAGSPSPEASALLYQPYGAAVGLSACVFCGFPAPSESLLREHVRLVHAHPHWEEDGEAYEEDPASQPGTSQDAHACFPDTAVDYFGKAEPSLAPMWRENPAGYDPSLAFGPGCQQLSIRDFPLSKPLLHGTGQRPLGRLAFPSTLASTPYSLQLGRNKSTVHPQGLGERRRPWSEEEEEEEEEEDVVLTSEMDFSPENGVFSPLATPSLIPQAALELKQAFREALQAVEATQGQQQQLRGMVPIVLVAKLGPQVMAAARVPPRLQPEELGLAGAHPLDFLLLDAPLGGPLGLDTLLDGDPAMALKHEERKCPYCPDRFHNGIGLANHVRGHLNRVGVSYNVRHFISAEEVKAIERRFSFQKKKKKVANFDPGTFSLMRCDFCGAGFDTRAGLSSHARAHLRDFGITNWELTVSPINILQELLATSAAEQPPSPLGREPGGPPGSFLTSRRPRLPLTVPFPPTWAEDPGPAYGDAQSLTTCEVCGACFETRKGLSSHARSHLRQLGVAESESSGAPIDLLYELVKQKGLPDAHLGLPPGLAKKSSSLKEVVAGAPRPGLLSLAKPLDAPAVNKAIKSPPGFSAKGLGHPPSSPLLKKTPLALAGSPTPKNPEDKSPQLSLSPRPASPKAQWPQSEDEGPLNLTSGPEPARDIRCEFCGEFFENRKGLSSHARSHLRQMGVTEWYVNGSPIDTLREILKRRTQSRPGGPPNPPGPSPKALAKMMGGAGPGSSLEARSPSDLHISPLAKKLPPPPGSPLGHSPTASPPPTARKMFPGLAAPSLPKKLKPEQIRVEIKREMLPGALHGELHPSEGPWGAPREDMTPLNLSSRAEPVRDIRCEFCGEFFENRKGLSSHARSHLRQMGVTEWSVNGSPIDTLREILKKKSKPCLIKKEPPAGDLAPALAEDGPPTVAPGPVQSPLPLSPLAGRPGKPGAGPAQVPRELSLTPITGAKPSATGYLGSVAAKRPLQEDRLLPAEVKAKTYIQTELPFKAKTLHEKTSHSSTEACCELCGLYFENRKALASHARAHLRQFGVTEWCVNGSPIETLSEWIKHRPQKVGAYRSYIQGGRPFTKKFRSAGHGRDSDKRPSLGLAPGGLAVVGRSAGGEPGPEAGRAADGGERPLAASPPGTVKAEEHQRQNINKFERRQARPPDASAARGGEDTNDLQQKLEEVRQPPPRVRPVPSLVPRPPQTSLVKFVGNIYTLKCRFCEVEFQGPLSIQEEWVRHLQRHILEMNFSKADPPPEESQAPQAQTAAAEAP
T1 sequence (Q96SW2 whole entry): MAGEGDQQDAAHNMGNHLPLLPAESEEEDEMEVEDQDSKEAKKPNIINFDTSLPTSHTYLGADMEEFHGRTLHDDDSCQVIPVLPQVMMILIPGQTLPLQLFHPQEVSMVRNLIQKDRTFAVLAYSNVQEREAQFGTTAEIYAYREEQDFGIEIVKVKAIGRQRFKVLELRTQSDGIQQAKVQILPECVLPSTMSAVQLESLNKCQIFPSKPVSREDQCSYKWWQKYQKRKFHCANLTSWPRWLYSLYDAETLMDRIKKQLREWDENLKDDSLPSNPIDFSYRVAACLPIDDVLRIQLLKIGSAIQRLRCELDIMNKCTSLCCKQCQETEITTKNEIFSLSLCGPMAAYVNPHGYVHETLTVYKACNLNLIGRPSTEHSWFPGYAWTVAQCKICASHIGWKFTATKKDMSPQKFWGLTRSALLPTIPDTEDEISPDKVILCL
T1 sequence (Q16531 whole entry partner): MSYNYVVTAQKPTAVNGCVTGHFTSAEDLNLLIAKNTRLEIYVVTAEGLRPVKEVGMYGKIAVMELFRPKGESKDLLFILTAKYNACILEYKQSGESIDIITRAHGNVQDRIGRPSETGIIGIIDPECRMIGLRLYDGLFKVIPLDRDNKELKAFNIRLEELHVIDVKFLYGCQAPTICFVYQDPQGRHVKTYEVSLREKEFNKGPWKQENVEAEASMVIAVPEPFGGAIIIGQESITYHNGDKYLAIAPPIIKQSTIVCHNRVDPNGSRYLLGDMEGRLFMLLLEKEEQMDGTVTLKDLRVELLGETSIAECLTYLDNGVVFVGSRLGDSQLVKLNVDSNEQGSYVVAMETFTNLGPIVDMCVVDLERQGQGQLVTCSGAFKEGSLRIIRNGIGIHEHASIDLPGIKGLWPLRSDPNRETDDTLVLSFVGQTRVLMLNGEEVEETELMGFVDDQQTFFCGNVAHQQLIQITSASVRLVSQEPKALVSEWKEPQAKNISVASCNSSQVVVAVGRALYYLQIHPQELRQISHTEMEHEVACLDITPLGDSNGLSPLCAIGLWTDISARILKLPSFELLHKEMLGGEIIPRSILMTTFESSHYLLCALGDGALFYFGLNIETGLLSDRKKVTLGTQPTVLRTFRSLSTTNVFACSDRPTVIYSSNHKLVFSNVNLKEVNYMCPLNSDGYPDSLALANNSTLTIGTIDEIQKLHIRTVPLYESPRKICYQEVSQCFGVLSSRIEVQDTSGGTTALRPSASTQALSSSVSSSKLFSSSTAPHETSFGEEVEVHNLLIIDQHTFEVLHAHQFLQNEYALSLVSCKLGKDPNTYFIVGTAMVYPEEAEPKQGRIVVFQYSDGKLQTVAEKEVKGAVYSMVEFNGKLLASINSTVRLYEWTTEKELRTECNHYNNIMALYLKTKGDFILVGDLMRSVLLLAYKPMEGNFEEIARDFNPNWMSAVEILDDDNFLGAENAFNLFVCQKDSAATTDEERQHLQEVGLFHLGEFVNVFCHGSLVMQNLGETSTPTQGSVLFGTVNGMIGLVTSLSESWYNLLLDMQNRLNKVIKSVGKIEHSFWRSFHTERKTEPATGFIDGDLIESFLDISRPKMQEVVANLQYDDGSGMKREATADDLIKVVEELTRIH

On to `CN1CCC(Cc2ccc3onc(N4CCC(=O)NC4=O)c3c2)C1` (stereo not drawn) [Example 50, 1-(5-((1-methylpyrrolidin-3-yl)methyl)benzo[d]isoxazol-3-yl)dihydropyrimidine-2,4(1H,3H)-dione], for which the Dmax at 25 µM is 78%, the remaining activity at 25 µM was determined as 22% and the DC50 amounted to 448 nM.
As for `CN1CC2CCC1CN2Cc1ccc2onc(N3CCC(=O)NC3=O)c2c1` (single isomer, unassigned) [Example 124, 1-(5-((5-methyl-2,5-diazabicyclo[2.2.2]octan-2-yl)methyl)benzo[d]isoxazol-3-yl)dihydropyrimidine-2,4(1H,3H)-dione], the “% degradation of WIZ (100-Amax)” value was determined as 85%, the “WIZ Amax” value was found to be 15% and the DC50 worked out at 520 nM.
As to `O=C1CCN(c2noc3ccc(CN4[C@@H]5CC[C@H]4CNC5)cc23)C(=O)N1` [Example 102, 1-(5-(((1R,5S)-3,8-diazabicyclo[3.2.1]octan-8-yl)methyl)benzo[d]isoxazol-3-yl)dihydropyrimidine-2,4(1H,3H)-dione], the Dmax at 25 µM stood at 80%, the remaining activity at 25 µM was determined as 20% and the DC50 was found to be 462 nM.
On to `CC(C)(C)OC(=O)N1CCC(Cc2ccc3onc(N4CCC(=O)NC4=O)c3c2)C1` (stereo not drawn) [Example 47, tert-butyl 3-((3-(2,4-dioxotetrahydropyrimidin-1 (2H)-yl)benzo[d]isoxazol-5-yl)methyl)pyrrolidine-1-carboxylate], for which the Dmax at 25 µM was 85%, the remaining activity at 25 µM amounted to 15% and the DC50 is 397 nM.
On to `CC(C)CN1CCN(Cc2ccc3onc(N4CCC(=O)NC4=O)c3c2)C[C@@H]1C` [Example 30, (S)-1-(5-((4-isobutyl-3-methylpiperazin-1-yl)methyl)benzo[d]isoxazol-3-yl)dihydropyrimidine-2,4(1H,3H)-dione], for which the Dmax at 25 µM was determined as 91%, the remaining activity at 25 µM stood at 9% and the DC50 was 4.5 nM.
In the case of `O=C1CCN(c2noc3ccc(CN4C[C@H]5C[C@@H]4CN5CC4CCOCC4)cc23)C(=O)N1` [Example 98, 1-(5-(((1R,4R)-5-((tetrahydro-2H-pyran-4-yl)methyl)-2,5-diazabicyclo[2.2.1]heptan-2-yl)methyl)benzo[d]isoxazol-3-yl)dihydropyrimidine-2,4(1H,3H)-dione], the Dmax at 25 µM is 81%, the remaining activity at 25 µM came to 19% and the DC50 was found to be 50 nM.
With `C[C@@H]1CN(C(=O)NC2CCCC2)CCN1Cc1ccc2onc(N3CCC(=O)NC3=O)c2c1` [Example 76, (R)—N-cyclopentyl-4-((3-(2,4-dioxotetrahydropyrimidin-1(2H)-yl)benzo[d]isoxazol-5-yl)methyl)-3-methylpiperazine-1-carboxamide], the Dmax at 25 µM turned out to be 78%, the remaining activity at 25 µM was 22% and the DC50 is 115 nM.
In the case of `CS(=O)(=O)N1[C@@H]2CC[C@H]1CC(Cc1ccc3onc(N4CCC(=O)NC4=O)c3c1)C2` (stereo partly drawn) [Example 61, 1-(5-(((1R,5S)-8-(methylsulfonyl)-8-azabicyclo[3.2.1]octan-3-yl)methyl)benzo[d]isoxazol-3-yl)dihydropyrimidine-2,4(1H,3H)-dione], the “% degradation of WIZ (100-Amax)” value came to 85%, the “WIZ Amax” value worked out at 15% and the DC50 turned out to be 26 nM.
Take `O=C1CCN(c2noc3ccc(CN4CCN5CCOC[C@@H]5C4)cc23)C(=O)N1` [Example 111, (S)-1-(5-((hexahydropyrazino[2,1-c][1,4]oxazin-8(1H)-yl)methyl)benzo[d]isoxazol-3-yl)dihydropyrimidine-2,4(1H,3H)-dione]: the Dmax at 25 µM worked out at 85%, the remaining activity at 25 µM came out at 15% and the DC50 came out at 61 nM.
For the molecule `O=C1CCN(c2noc3ccc(CN4CCN(CC5CCOCC5)[C@@H](C(F)F)C4)cc23)C(=O)N1` [Example 115, (R)-1-(5-((3-(difluoromethyl)-4-((tetrahydro-2H-pyran-4-yl)methyl)piperazin-1-yl)methyl)benzo[d]isoxazol-3-yl)dihydropyrimidine-2,4(1H,3H)-dione], the Dmax at 25 µM was 78%, the remaining activity at 25 µM worked out at 22% and the DC50 worked out at 53 nM.
For the molecule `Cc1ccccc1CN1CCC(Cc2ccc3onc(N4CCC(=O)NC4=O)c3c2)CC1` [Example 12, 1-(5-((1-(2-methylbenzyl)piperidin-4-yl)methyl)benzo[d]isoxazol-3-yl)dihydropyrimidine-2,4(1H,3H)-dione], the Dmax at 25 µM is 90%, the remaining activity at 25 µM is 10% and the DC50 is 44 nM.
The matching figures for `CC(C)S(=O)(=O)N1CCN(Cc2ccc3onc(N4CCC(=O)NC4=O)c3c2)[C@H](C)C1` [Example 73, (R)-1-(5-((4-(isopropylsulfonyl)-2-methylpiperazin-1-yl)methyl)benzo[d]isoxazol-3-yl)dihydropyrimidine-2,4(1H,3H)-dione]: 83%, 17% and 110 nM.
In the case of `O=C1CCN(c2noc3ccc(CN4CCN(Cc5ccccc5)CC4)cc23)C(=O)N1` [Example 25, 1-(5-((4-benzylpiperazin-1-yl)methyl)benzo[d]isoxazol-3-yl)dihydropyrimidine-2,4(1H,3H)-dione], the Dmax at 25 µM stood at 87%, the remaining activity at 25 µM is 13% and the DC50 came to 130 nM.
On to `CC(C)CN1CCN(Cc2ccc3onc(N4CCC(=O)NC4=O)c3c2)C[C@H]1C` [Example 34, (R)-1-(5-((4-isobutyl-3-methylpiperazin-1-yl)methyl)benzo[d]isoxazol-3-yl)dihydropyrimidine-2,4(1H,3H)-dione], for which the Dmax at 25 µM amounted to 89%, the remaining activity at 25 µM amounted to 11% and the DC50 is 40 nM.
For `CC(C)CN1CCN(Cc2ccc3onc(N4CCC(=O)NC4=O)c3c2)CC1=O` [Example 113, 1-(5-((4-isobutyl-3-oxopiperazin-1-yl)methyl)benzo[d]isoxazol-3-yl)dihydropyrimidine-2,4(1H,3H)-dione], the Dmax at 25 µM was 66%, the remaining activity at 25 µM stood at 34% and the DC50 was found to be 256 nM.
Take `CC(C)CN1CCN(Cc2ccc3onc(N4CCC(=O)NC4=O)c3c2)[C@@H](C)C1` [Example 32, (S)-1-(5-((4-isobutyl-2-methylpiperazin-1-yl)methyl)benzo[d]isoxazol-3-yl)dihydropyrimidine-2,4(1H,3H)-dione]: the Dmax at 25 µM was 91%, the remaining activity at 25 µM was 9% and the DC50 amounted to 99 nM.
In the case of `C[C@H]1CN(Cc2ccc3onc(N4CCC(=O)NC4=O)c3c2)CCN1CC1CCCCC1` [Example 28, (S)-1-(5-((4-(cyclohexylmethyl)-3-methylpiperazin-1-yl)methyl)benzo[d]isoxazol-3-yl)dihydropyrimidine-2,4(1H,3H)-dione], the Dmax at 25 µM worked out at 90%, the remaining activity at 25 µM worked out at 10% and the DC50 worked out at 5.4 nM.
Turning to `CC(c1ccc2onc(N3CCC(=O)NC3=O)c2c1)N1CCN(C)CC1` (stereo not drawn) [Example 127, 1-(5-(1-(4-methylpiperazin-1-yl)ethyl)benzo[d]isoxazol-3-yl)dihydropyrimidine-2,4(1H,3H)-dione], the Dmax at 25 µM is 91%, the remaining activity at 25 µM was 9% and the DC50 amounted to 149 nM.
`CCN1CCC(Cc2ccc3onc(N4CCC(=O)NC4=O)c3c2)CC1` [Example 8, 1-(5-((1-ethylpiperidin-4-yl)methyl)benzo[d]isoxazol-3-yl)dihydropyrimidine-2,4(1H,3H)-dione]: the Dmax at 25 µM worked out at 91%, the remaining activity at 25 µM is 9% and the DC50 came out at 16 nM.
Turning to `O=C1CCN(c2noc3ccc(CC4CCCN(CC5CCCCC5)C4)cc23)C(=O)N1` (stereo not drawn) [Example 44, 1-(5-((1-(cyclohexylmethyl)piperidin-3-yl)methyl)benzo[d]isoxazol-3-yl)dihydropyrimidine-2,4(1H,3H)-dione], the Dmax at 25 µM was determined as 77%, the remaining activity at 25 µM was found to be 23% and the DC50 came out at 475 nM.
